Source: patent US12552783B2, “Modulators of proteolysis and associated methods of use” (Arvinas Operations, Inc., priority 2018, dated 2026)

Columns and labels:
KRas [1] = target: T1, KRas (Homo sapiens, UniProt P01116, G12C); assay: KRas degradation in SW1573 cells by Western blot, normalized to GAPDH (data of Table 14); type: cell-based; conditions: SW1573 cells
Method: Cell Lines, Antibodies, and Reagents. NCI-H2030 (CRL-5914) and SW1573 (CRL-2170) cells were purchased from ATCC. Both cell lines are homozygous for the G12C mutation in KRas. NCI-H2030 cells were cultured in RPMI-1640 medium containing 1% penicillin-streptomycin and 10% fetal bovine serum (FBS). SW1573 cells were cultured in DMEM containing 1% penicillin-streptomycin and 10% FBS. The KRas detection antibody (Cat. No. LS-C175665) was purchased from LifeSpan Biosciences and was used at a dilution of 1:2000. GAPDH was detected using an antibody purchased from Cell Signaling Technology (Cat. No. 5174) and was diluted 1:3000. Secondary anti-mouse and anti-rabbit detection antibodies were purchased from Cell Signaling Technology (Cat. Nos. 7076 and 7074, respectively).
Compound Treatment and Western Blotting of the Data of Table 14. Either NCI-H2030 or SW1573 cells were plated in 12-well plates and allowed to adhere overnight at 37° C. in an incubator containing 5% CO2. The following day, the medium was replaced with the appropriate medium lacking FBS to induce starvation. Cells were returned to the incubator for an additional 24 hours following media exchange. […] Cells were treated with VHL-based compounds for 24 hours and all other compounds for 72 hours. Following treatment, cells were lysed in RIPA buffer (Thermo Fisher Cat. No. 89900) containing phosphatase (Thermo Fisher Cat. No. 1861277) and protease (Thermo Fisher Cat. No. 78429) inhibitor cocktails. Lysates were cleared at 13,000 rpm for 15 minutes and supernatants were assayed for total protein concentration using the Pierce BCA assay system (Thermo Fisher Cat. No. 23225). For each sample, 10 μg total protein was resolved on a 12% Bis-Tris gel and then transferred to a nitrocellulose membrane. After blocking in 3% BSA in TBST (Tris-buffered Saline with 0.1% Tween-20) for 1 hour at room temperature, membranes were probed with the primary antibody (LS Bio Cat. No. LS-C175665) overnight at 4° C. After incubation with the secondary antibody, the following day membranes were visualized using the SuperSignal™ West Femto substrate (Thermo Fisher Cat. No. 34095). The KRas signal in each lane was normalized to GAPDH and percent degradation was either estimated as less than 25% by visual inspection (C in Table 13) or quantitated relative to the DMSO control lane using BIO-RAD Image Lab 5.2.1, and all data was plotted using GraphPad PRISM 6.07.
DC50 is the half-maximal degradation concentration—i.e., the concentration at which 50% degradation is observed. DMax is the maximum degradation efficacy is achieved—i.e., the maximal degradation observed) degradation data.

KRas [2] = target: T1, KRas; assay: KRas degradation in NCI-H2030 cells by Western blot, normalized to GAPDH (data of Table 14); type: cell-based; design: host or cells: NCI-H2030; conditions: for Percent Degradation at Indicated Concentration (μM): H2030
In short: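 After a day without serum, the G12C-homozygous cells received each compound at 0.3, 1 and 3 μM, with VHL-based degraders left for 24 h and other compounds for 72 h. DC50 is the concentration giving half-maximal degradation and DMax the maximal degradation, both taken from KRas levels normalized to GAPDH.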

Row | Structure (SMILES) | Percent Degradation at Indicated Concentration (μM) (KRas [1]; 0.1 μM) | Percent Degradation at Indicated Concentration (μM) (KRas [1]; 0.3 μM) | Percent Degradation at Indicated Concentration (μM) (KRas [1]; 1 μM) | Percent Degradation at Indicated Concentration (μM) (KRas [1]; 3 μM) | other results
1 | C=CC(=O)N1CCN(c2nc(O[C@H](C)CN3CCC(OCCOCCOCCOCCOCCOc4cc(C(C(=O)N5C[C@H](O)C[C@H]5C(=O)N[C@@H](C)c5ccc(-c6scnc6C)cc5)C(C)C)on4)CC3)nc3c(F)c(-c4cc(O)cc5ccccc45)c(Cl)cc23)CC1 (stereo in doubt) [compound 532, (2S,4R)-1-((2R)-2-(3-((14-((1-((2R)-2-((4-(4-acryloylpiperazin-1-yl)-6-chloro-8-fluoro-7-(3-hydroxynaphthalen-1-yl)quinazolin-2-yl)oxy)propyl)piperidin-4-yl)oxy)-3,6,9,12-tetraoxatetradecyl)oxy)isoxazol-5-yl)-3-methylbutanoyl)-4-hydroxy-N-((S)-1-(4-(4-methylthiazol-5-yl)phenyl)ethyl)pyrrolidine-2-carboxamide] | C (Percent Degradation: C ≤ 35) | C (Percent Degradation: C ≤ 35) | – | – | Percent Degradation at Indicated Concentration (μM) (KRas [1]; 0.03 μM): C (Percent Degradation: C ≤ 35)
2 | Cc1ncsc1-c1ccc([C@H](C)NC(=O)[C@@H]2C[C@@H](O)CN2C(=O)[C@@H](NC(=O)COCCOC2CCN(C[C@@H](C)Oc3nc(N4CCN(C(=O)C(O)O)CC4)c4cc(Cl)c(-c5cc(O)cc6ccccc56)c(F)c4n3)CC2)C(C)(C)C)cc1 [compound 244, (2S,4R)-1-((2S)-2-(2-(2-((1-((2R)-2-((6-chloro-4-(4-(2,2-dihydroxyacetyl)piperazin-1-yl)-8-fluoro-7-(3-hydroxynaphthalen-1-yl)quinazolin-2-yl)oxy)propyl)piperidin-4-yl)oxy)ethoxy)acetamido)-3,3-dimethylbutanoyl)-4-hydroxy-N-((S)-1-(4-(4-methylthiazol-5-yl)phenyl)ethyl)pyrrolidine-2-carboxamide] | – | C (Percent Degradation: C ≤ 35) | C (Percent Degradation: C ≤ 35) | C (Percent Degradation: C ≤ 35) | –
3 | Cc1ncsc1-c1ccc([C@H](C)NC(=O)[C@@H]2C[C@@H](O)CN2C(=O)[C@@H](NC(=O)COCCOCCOC2CCN(C[C@@H](C)Oc3nc(N4CCN(C(=O)C(O)O)CC4)c4cc(Cl)c(-c5cc(O)cc6ccccc56)c(F)c4n3)CC2)C(C)(C)C)cc1 [compound 245, (2S,4R)-1-((2S)-2-(2-(2-(2-((1-((2R)-2-((6-chloro-4-(4-(2,2-dihydroxyacetyl)piperazin-1-yl)-8-fluoro-7-(3-hydroxynaphthalen-1-yl)quinazolin-2-yl)oxy)propyl)piperidin-4-yl)oxy)ethoxy)ethoxy)acetamido)-3,3-dimethylbutanoyl)-4-hydroxy-N-((S)-1-(4-(4-methylthiazol-5-yl)phenyl)ethyl)pyrrolidine-2-carboxamide] | C (Percent Degradation: C ≤ 35) | C (Percent Degradation: C ≤ 35) | C (Percent Degradation: C ≤ 35) | – | –
4 | Cc1ncsc1-c1ccc([C@H](C)NC(=O)[C@@H]2C[C@@H](O)CN2C(=O)[C@@H](NC(=O)COCCOCCOCCOC2CCN(C[C@@H](C)Oc3nc(N4CCN(C(=O)C(O)O)CC4)c4cc(Cl)c(-c5cc(O)cc6ccccc56)c(F)c4n3)CC2)C(C)(C)C)cc1 [compound 246, (2S,4R)-1-((2S)-2-(tert-butyl)-14-((1-((2R)-2-((6-chloro-4-(4-(2,2-dihydroxyacetyl)piperazin-1-yl)-8-fluoro-7-(3-hydroxynaphthalen-1-yl)quinazolin-2-yl)oxy)propyl)piperidin-4-yl)oxy)-4-oxo-6,9,12-trioxa-3-azatetradecanoyl)-4-hydroxy-N-((S)-1-(4-(4-methylthiazol-5-yl)phenyl)ethyl)pyrrolidine-2-carboxamide] | – | C (Percent Degradation: C ≤ 35) | C (Percent Degradation: C ≤ 35) | C (Percent Degradation: C ≤ 35) | –
5 | Cc1ncsc1-c1ccc([C@H](C)NC(=O)[C@@H]2C[C@@H](O)CN2C(=O)[C@@H](NC(=O)COCCOCCOCCOCCOC2CCN(C[C@@H](C)Oc3nc(N4CCN(C(=O)C(O)O)CC4)c4cc(Cl)c(-c5cc(O)cc6ccccc56)c(F)c4n3)CC2)C(C)(C)C)cc1 [compound 247, (2S,4R)-1-((2S)-2-(tert-butyl)-17-((1-((2R)-2-((6-chloro-4-(4-(2,2-dihydroxyacetyl)piperazin-1-yl)-8-fluoro-7-(3-hydroxynaphthalen-1-yl)quinazolin-2-yl)oxy)propyl)piperidin-4-yl)oxy)-4-oxo-6,9,12,15-tetraoxa-3-azaheptadecanoyl)-4-hydroxy-N-((S)-1-(4-(4-methylthiazol-5-yl)phenyl)ethyl)pyrrolidine-2-carboxamide] | – | C (Percent Degradation: C ≤ 35) | C (Percent Degradation: C ≤ 35) | C (Percent Degradation: C ≤ 35) | –
6 | Cc1ncsc1-c1ccc([C@H](C)NC(=O)[C@@H]2C[C@@H](O)CN2C(=O)[C@@H](NC(=O)COCCOCCOCCOCCOCCOC2CCN(C[C@@H](C)Oc3nc(N4CCN(C(=O)C(O)O)CC4)c4cc(Cl)c(-c5cc(O)cc6ccccc56)c(F)c4n3)CC2)C(C)(C)C)cc1 [compound 248, (2S,4R)-1-((2S)-2-(tert-butyl)-20-((1-((2R)-2-((6-chloro-4-(4-(2,2-dihydroxyacetyl)piperazin-1-yl)-8-fluoro-7-(3-hydroxynaphthalen-1-yl)quinazolin-2-yl)oxy)propyl)piperidin-4-yl)oxy)-4-oxo-6,9,12,15,18-pentaoxa-3-azaicosanoyl)-4-hydroxy-N-((S)-1-(4-(4-methylthiazol-5-yl)phenyl)ethyl)pyrrolidine-2-carboxamide] | – | C (Percent Degradation: C ≤ 35) | C (Percent Degradation: C ≤ 35) | C (Percent Degradation: C ≤ 35) | –
7 | C=CC(=O)N1CCN(c2nc(O[C@H](C)CN(C)CCOCCOCCOCCOCC(=O)N[C@H](C(=O)N3C[C@H](O)C[C@H]3C(=O)N[C@@H](C)c3ccc(-c4scnc4C)cc3)C(C)(C)C)nc3c(F)c(-c4cc(O)cc5ccccc45)c(Cl)cc23)CC1 [compound 397, (2S,4R)-1-((2S,20R)-20-((4-(4-acryloylpiperazin-1-yl)-6-chloro-8-fluoro-7-(3-hydroxynaphthalen-1-yl)quinazolin-2-yl)oxy)-2-(tert-butyl)-18-methyl-4-oxo-6,9,12,15-tetraoxa-3,18-diazahenicosanoyl)-4-hydroxy-N-((S)-1-(4-(4-methylthiazol-5-yl)phenyl)ethyl)pyrrolidine-2-carboxamide] | C (Percent Degradation: C ≤ 35) | C (Percent Degradation: C ≤ 35) | C (Percent Degradation: C ≤ 35) | – | DC50 (KRas [1]): 0.1 to 1 µM; Dmax (KRas [1]): ≤ 35%; Percent Degradation at Indicated Concentration (μM) (KRas [1]; 0.01 μM): C (Percent Degradation: C ≤ 35); Percent Degradation at Indicated Concentration (μM) (KRas [1]; 0.03 μM): C (Percent Degradation: C ≤ 35)
8 | C=CC(=O)N1CCN(c2nc(OCCCN(C)CCOCCOCCOCCOCC(=O)N[C@H](C(=O)N3C[C@H](O)C[C@H]3C(=O)N[C@@H](C)c3ccc(-c4scnc4C)cc3)C(C)(C)C)nc3c(F)c(-c4cc(O)cc5ccccc45)c(Cl)cc23)CC1 [compound 497, (2S,4R)-1-((2S)-21-((4-(4-acryloylpiperazin-1-yl)-6-chloro-8-fluoro-7-(3-hydroxynaphthalen-1-yl)quinazolin-2-yl)oxy)-2-(tert-butyl)-18-methyl-4-oxo-6,9,12,15-tetraoxa-3,18-diazahenicosanoyl)-4-hydroxy-N-((S)-1-(4-(4-methylthiazol-5-yl)phenyl)ethyl)pyrrolidine-2 carboxamide] | – | – | – | – | Percent Degradation at Indicated Concentration (μM) (KRas [2]; 0.3 μM): C (Percent Degradation: C ≤ 35); Percent Degradation at Indicated Concentration (μM) (KRas [2]; 1 μM): C (Percent Degradation: C ≤ 35); Percent Degradation at Indicated Concentration (μM) (KRas [2]; 3 μM): C (Percent Degradation: C ≤ 35); Dmax (KRas [2]; NCI-H2030): ≤ 35%
